The results in this text go back to patent US20140005163A1 (NOVARTIS AG, priority 2010, published 2014).

Converted amounts (≈) assume the structure as drawn.

A short description of data set [1]: Solubility at pH 6.8. The settings on record: pH 6.8, aqueous buffer, thermodynamic from solid; read-out: solubility. Format: physicochemical. In outline: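 Following the procedure of Zhou et al. (2007), compound solubility was determined at pH 6.8.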
In data set [2] the test system is PKB Ser473 phosphorylation in Rat1-myr-HA-p110 beta cells. Kind of data set: Reverse protein array assay, PKB Ser473 phosphorylation in Rat1-myr-p110 beta cells. It is filed as cell-based. To be noted: 0.5 h, pAkt Ser473, 30 minutes incubation, read-out: p-PKB IC50. Summed up:
(§1)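 Compound exposure lasted 30 min in Rat1 cells bearing membrane-targeted HA-p110 isoforms, using 8 serial concentrations. Arrayed lysates, each spotted at four dilutions, gave relative fluorescence signals for phospho-Ser473 PKB.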

Data set [3] relates to S6 Ribosomal Protein phosphorylation Ser235/236 in TSC1 null mouse embryo fibroblast (MEF) cells. Kind of data set: Reverse protein array assay, S6 Ribosomal Protein phosphorylation Ser235/236 in TSC1 null MEF cells. Format: cell-based. The settings on record: 1 h, pS6 ribosomal protein Ser235/236, 60 minutes incubation, read-out: p-S6 IC50. Summed up:
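TSC1−/− MEFs, seeded and held ≥20 h at 37 °C/5% CO2, were exposed to 8-step serial compound dilutions (0.02% DMSO final; DMSO vehicle control) for 60 min at 37 °C. Cells were then lysed on ice for 10 min and lysates spotted onto reverse protein array chips.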

Data set [4] deals with PKB Ser473 phosphorylation in Rat1-myr-HA-p110 delta cells. Kind of data set: Reverse protein array assay, PKB Ser473 phosphorylation in Rat1-myr-p110 delta cells. The settings on record: read-out: p-PKB IC50. Format: cell-based. In outline: as §1
The subject of data set [5] is PKB Ser473 phosphorylation in Rat1-myr-HA-p110 alpha cells. The data set is described as follows: Reverse protein array assay, PKB Ser473 phosphorylation in Rat1-myr-p110 alpha cells. Format: cell-based. The settings on record: 0.5 h, pAkt Ser473, 30 minutes compound incubation, read-out: p-PKB IC50. In outline:
as §1

Data set [6] addresses T1, mTOR (Homo sapiens, UniProt P42345).
T1 construct: purchased Invitrogen Corporation (Carlsbad/CA, USA) PV4753
The data set is described as follows: Biochemical assay for m-TOR by TR-FRET. The settings on record: 8 μM ATP, 400 nM GFP-4EBP1, 0.5 nM mTOR. In outline:
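Enzyme 0.5 nM, GFP-4EBP1 400 nM, ATP 8 μM (all final); 50 mM HEPES pH 7.5, 10 mM MnCl2, 1 mM DTT; rt. Detection: Tb-α-p4EBP1 [pT46] 0.5 nM in EDTA, TR-FRET, 15 min. Reference compound on every plate, 16-point duplicate dilutions.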
(In general: In TR-FRET formats the signal depends on donor and acceptor labels being close together.)

T1 sequence (P42345 1360-2549 limits assumed): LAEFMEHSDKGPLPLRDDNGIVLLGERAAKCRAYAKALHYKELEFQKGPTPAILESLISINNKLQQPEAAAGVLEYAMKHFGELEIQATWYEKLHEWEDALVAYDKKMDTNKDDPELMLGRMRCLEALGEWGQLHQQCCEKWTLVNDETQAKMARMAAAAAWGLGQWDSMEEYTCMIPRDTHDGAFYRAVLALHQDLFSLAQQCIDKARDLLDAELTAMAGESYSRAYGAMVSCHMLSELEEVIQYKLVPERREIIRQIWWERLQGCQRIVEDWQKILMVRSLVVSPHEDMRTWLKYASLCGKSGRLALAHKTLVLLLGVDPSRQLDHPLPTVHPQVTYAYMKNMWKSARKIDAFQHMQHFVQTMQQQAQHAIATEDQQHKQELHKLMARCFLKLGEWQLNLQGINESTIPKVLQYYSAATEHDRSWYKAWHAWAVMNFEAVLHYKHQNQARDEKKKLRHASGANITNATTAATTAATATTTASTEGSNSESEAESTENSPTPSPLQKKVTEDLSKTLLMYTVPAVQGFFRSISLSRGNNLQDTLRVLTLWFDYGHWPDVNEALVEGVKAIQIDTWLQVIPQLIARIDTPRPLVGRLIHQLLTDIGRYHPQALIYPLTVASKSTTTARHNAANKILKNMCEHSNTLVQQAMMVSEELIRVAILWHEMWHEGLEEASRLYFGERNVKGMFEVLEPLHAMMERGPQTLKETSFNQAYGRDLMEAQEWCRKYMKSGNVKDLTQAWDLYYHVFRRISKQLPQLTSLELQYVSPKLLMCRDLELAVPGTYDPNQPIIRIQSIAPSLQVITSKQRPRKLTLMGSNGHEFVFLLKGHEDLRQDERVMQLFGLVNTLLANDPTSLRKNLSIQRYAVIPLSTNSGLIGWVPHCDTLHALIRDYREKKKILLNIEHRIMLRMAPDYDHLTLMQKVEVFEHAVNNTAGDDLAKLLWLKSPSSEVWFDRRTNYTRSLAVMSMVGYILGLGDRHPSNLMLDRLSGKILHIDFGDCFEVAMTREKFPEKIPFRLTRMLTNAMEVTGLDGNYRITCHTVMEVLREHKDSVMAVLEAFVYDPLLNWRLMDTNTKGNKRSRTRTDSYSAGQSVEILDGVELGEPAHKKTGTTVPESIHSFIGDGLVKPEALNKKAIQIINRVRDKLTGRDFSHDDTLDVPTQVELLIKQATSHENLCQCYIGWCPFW

As to `CCNc1cc(-c2ccc3ncc4c(c3c2)n(-c2cn(C)nc2C)c(=O)n4C)cnc1CC` [Example 161, 1-(1,3-Dimethyl-1H-pyrazol-4-yl)-8-(6-ethyl-5-ethylamino-pyridin-3-yl)-3-methyl-1,3-dihydro-imidazo[4,5-c]quinolin-2-one], the solubility in data set [1] came to 433 µg/mL (≈ 981 µM). Also, the IC50 was < 5 nM in data set [2]; 2 nM in data set [3]; < 5 nM in data set [4]; < 5 nM in data set [5]; < 3 nM in data set [6].

As to `Cc1nn(C)cc1-n1c(=O)n(C)c2cnc3ccc(-c4cncc(OCC5CC5)c4)cc3c21` [Example 61, 8-(5-Cyclopropylmethoxy-pyridin-3-yl)-1-(1,3-dimethyl-1H-pyrazol-4-yl)-3-methyl-1,3-dihydro-imidazo[4,5-c]quinolin-2-one], in data set [1], the solubility was 8 µg/mL (≈ 18.2 µM). The IC50 in data set [2] was determined as 28 nM; in data set [3], 1 nM; in data set [4], 246 nM; in data set [5] it was 13 nM; in data set [6] it was 65 nM.

Regarding `Cc1nn(C(C)C)cc1-n1c(=O)n(C)c2cnc3ccc(-c4ccc(N5CCC5)nc4)cc3c21` [Example 5.2, 8-(6-Azetidin-1-yl-pyridin-3-yl)-1-(1-isopropyl-3-methyl-1H-pyrazol-4-yl)-3-methyl-1,3-dihydro-imidazo[4,5-c]quinolin-2-one], the solubility in data set [1] is 7 µg/mL (≈ 15.4 µM). Moreover, the half-inhibitory concentration (IC50) stood at 22 nM in data set [2]; 5 nM in data set [3]; 27 nM in data set [4]; 14 nM in data set [5]; 13 nM in data set [6].

For `Cc1nn(C)cc1-n1c(=O)n(C)c2cnc3ccc(-c4ccc(N5CC[C@@H](O)C5)nc4)cc3c21` [Example 212.1, 1-(1,3-Dimethyl-1H-pyrazol-4-yl)-8-[6-((R)-3-hydroxy-pyrrolidin-1-yl)-pyridin-3-yl]-3-methyl-1,3-dihydro-imidazo[4,5-c]quinolin-2-one], the solubility in data set [1] worked out at 55 µg/mL (≈ 121 µM). The concentration for half-maximal inhibition (IC50) came out at 199 nM in data set [2]; 7 nM in data set [3]; 768 nM in data set [4]; 135 nM in data set [5]; 72 nM in data set [6].

In the case of `CCOc1ccc(-c2ccc3ncc4c(c3c2)n(-c2cn(CC(=O)N3CCOCC3)nc2C)c(=O)n4C)cn1` [Example 3.10, 8-(6-Ethoxy-pyridin-3-yl)-3-methyl-1-[3-methyl-1-(2-morpholin-4-yl-2-oxo-ethyl)-1H-pyrazol-4-yl]-1,3-dihydro-imidazo[4,5-c]quinolin-2-one], in data set [1], the solubility worked out at 26 µg/mL (≈ 49.3 µM). The IC50 worked out at 70 nM in data set [2]; 10 nM in data set [3]; 84 nM in data set [4]; 59 nM in data set [5]; 18 nM in data set [6].

In the case of `Cc1nn(C)c(C)c1-n1c(=O)n(C)c2cnc3ccc(-c4cnc(N)nc4)cc3c21` [Example 81.2, 8-(2-Amino-pyrimidin-5-yl)-3-methyl-1-(1,3,5-trimethyl-1H-pyrazol-4-yl)-1,3-dihydro-imidazo[4,5-c]quinolin-2-one], the solubility in data set [1] was 133 µg/mL (≈ 332 µM). Moreover, the IC50 in data set [2] was found to be 295 nM; in data set [3] it was 19 nM; in data set [4], 382 nM; in data set [5], 220 nM; in data set [6] it was 324 nM.

For the compound `CNc1ncc(-c2ccc3ncc4c(c3c2)n(-c2cn(C)nc2C)c(=O)n4C)cc1C(F)(F)F` [Example 144.3, 1-(1,3-Dimethyl-1H-pyrazol-4-yl)-3-methyl-8-(6-methylamino-5-trifluoromethyl-pyridin-3-yl)-1,3-dihydro-imidazo[4,5-c]quinolin-2-one], in data set [1], the solubility was 44 µg/mL (≈ 94.1 µM). Also, the 50% inhibitory concentration (IC50) in data set [2] is < 5 nM; in data set [3], < 0.5 nM; in data set [4], 11 nM; in data set [5], < 5 nM; in data set [6], 3 nM.

As for `CCN(C)c1cncc(-c2ccc3ncc4c(c3c2)n(-c2cn(C)nc2C)c(=O)n4C)c1` [Example 176, 1-(1,3-Dimethyl-1H-pyrazol-4-yl)-8-[5-(ethyl-methyl-amino)-pyridin-3-yl]-3-methyl-1,3-dihydro-imidazo[4,5-c]quinolin-2-one], the solubility in data set [1] is 59 µg/mL (≈ 138 µM). The IC50 in data set [2] is 7 nM; in data set [3], 2 nM; in data set [4], 48 nM; in data set [5] it was < 5 nM; in data set [6] it was 15 nM.

On to `CNc1cc(-c2ccc3ncc4c(c3c2)n(-c2cn(C)nc2C)c(=O)n4C)cnc1COC` [Example 159, 1-(1,3-Dimethyl-1H-pyrazol-4-yl)-8-(6-methoxymethyl-5-methylamino-pyridin-3-yl)-3-methyl-1,3-dihydro-imidazo[4,5-c]quinolin-2-one], for which the solubility in data set [1] was > 444 µg/mL. Besides, the IC50 is 8 nM in data set [2]; 8 nM in data set [3]; 24 nM in data set [4]; 7 nM in data set [5]; 12 nM in data set [6].

In the case of `COc1ncc(-c2ccc3ncc4c(c3c2)n(-c2cn(C)nc2Cl)c(=O)n4C)cn1` [Example 17.3, 1-(3-Chloro-1-methyl-1H-pyrazol-4-yl)-8-(2-methoxy-pyrimidin-5-yl)-3-methyl-1,3-dihydro-imidazo[4,5-c]quinolin-2-one], in data set [1], the solubility was 4 µg/mL (≈ 9.48 µM). The IC50 was 22 nM in data set [2]; 3 nM in data set [3]; 28 nM in data set [4]; 21 nM in data set [5]; 12 nM in data set [6].

Turning to `Cc1nn(C)cc1-n1c(=O)n(C)c2cnc3ccc(-c4cnc(N(C)C)nc4)cc3c21` [Example 6.2, 8-(2-Dimethylamino-pyrimidin-5-yl)-1-(1,3-dimethyl-1H-pyrazol-4-yl)-3-methyl-1,3-dihydro-imidazo[4,5-c]quinolin-2-one], the solubility in data set [1] stood at 41 µg/mL (≈ 98.9 µM). Also, the IC50 came out at 47 nM in data set [2]; 8 nM in data set [3]; 76 nM in data set [4]; 32 nM in data set [5]; 43 nM in data set [6].

Take `CNC(=O)c1ccc(-c2ccc3ncc4c(c3c2)n(-c2cn(C)nc2C)c(=O)n4C)cn1` [Example 15.1, 5-[1-(1,3-Dimethyl-1H-pyrazol-4-yl)-3-methyl-2-oxo-2,3-dihydro-1H-imidazo[4,5-c]quinolin-8-yl]-pyridine-2-carboxylic acid methylamide]: the solubility in data set [1] is 10 µg/mL (≈ 23.4 µM). Moreover, the IC50 in data set [2] came out at 21 nM; in data set [3], 11 nM; in data set [4], 91 nM; in data set [5] it was 25 nM; in data set [6], 13 nM.

As to `COCc1cncc(-c2ccc3ncc4c(c3c2)n(-c2cn(C)nc2Cl)c(=O)n4C)c1` [Example 54.2, 1-(3-Chloro-1-methyl-1H-pyrazol-4-yl)-8-(5-methoxymethyl-pyridin-3-yl)-3-methyl-1,3-dihydro-imidazo[4,5-c]quinolin-2-one], the solubility in data set [1] is > 435 µg/mL. Besides, the IC50 was 43 nM in data set [2]; 1 nM in data set [3]; 44 nM in data set [4]; 42 nM in data set [5]; 94 nM in data set [6].

Turning to `CCOc1cc(-c2ccc3ncc4c(c3c2)n(-c2cn(C)nc2C)c(=O)n4C)ccn1` [Example 91, 1-(1,3-Dimethyl-1H-pyrazol-4-yl)-8-(2-ethoxy-pyridin-4-yl)-3-methyl-1,3-dihydro-imidazo[4,5-c]quinolin-2-one], the solubility in data set [1] turned out to be 13 µg/mL (≈ 31.4 µM). Also, the half-inhibitory concentration (IC50) in data set [2] was 391 nM; in data set [3] it was 36 nM; in data set [4], 631 nM; in data set [5], 234 nM; in data set [6], 512 nM.

With `CCn1cc(-n2c(=O)n(C)c3cnc4ccc(-c5cnc(F)c(NC)c5)cc4c32)c(C)n1` [Example 150.1, 1-(1-Ethyl-3-methyl-1H-pyrazol-4-yl)-8-(6-fluoro-5-methylamino-pyridin-3-yl)-3-methyl-1,3-dihydro-imidazo[4,5-c]quinolin-2-one], in data set [1], the solubility is 5 µg/mL (≈ 11.6 µM). In addition, the IC50 amounted to 11 nM in data set [2]; 1 nM in data set [3]; 21 nM in data set [4]; 9 nM in data set [5]; 17 nM in data set [6].

On to `CCn1cc(-n2c(=O)n(C)c3cnc4ccc(-c5cnc(OC)nc5)cc4c32)c(C)n1` [Example 17.1, 1-(1-Ethyl-3-methyl-1H-pyrazol-4-yl)-8-(2-methoxy-pyrimidin-5-yl)-3-methyl-1,3-dihydro-imidazo[4,5-c]quinolin-2-one], for which the solubility in data set [1] was 81 µg/mL (≈ 195 µM). The half-maximal inhibitory concentration (IC50) in data set [2] was found to be 57 nM; in data set [3], 87 nM; in data set [4] it was 103 nM; in data set [5], 73 nM; in data set [6], 59 nM.

Usually solubility stands for how much of the substance goes into solution per volume. The term IC50 denotes the concentration at which inhibition is half-maximal.
